Laboratory results reported in ChEMBL document CHEMBL1201862, “PubChem BioAssay data set” (2004).
The source made the active and inactive calls.

Experiments:
[1] = target: T1, Neuropeptide Y receptor type 1 (Homo sapiens, UniProt P25929); assay type: functional;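 note: HEK293 cells with a CNG channel challenged with NPY then isoproterenol; potency as antagonist that reverses NPY suppression of cAMP signal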
T1 sequence (P25929 whole entry): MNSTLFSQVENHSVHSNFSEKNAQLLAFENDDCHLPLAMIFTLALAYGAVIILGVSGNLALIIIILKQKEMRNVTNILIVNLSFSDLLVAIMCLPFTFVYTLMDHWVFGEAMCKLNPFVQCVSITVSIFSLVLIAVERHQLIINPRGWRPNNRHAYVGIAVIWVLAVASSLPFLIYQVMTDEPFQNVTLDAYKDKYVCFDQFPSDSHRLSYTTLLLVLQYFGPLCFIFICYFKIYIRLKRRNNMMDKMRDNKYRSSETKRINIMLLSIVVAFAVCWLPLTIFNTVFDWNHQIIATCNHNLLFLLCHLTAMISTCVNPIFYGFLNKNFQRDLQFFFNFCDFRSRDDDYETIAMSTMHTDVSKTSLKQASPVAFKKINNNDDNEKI

[2] = target: T2, Neuropeptide Y receptor type 2 (Homo sapiens, UniProt P49146); assay type: functional, cell-based;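 note: HEK293 cells expressing the receptor and a CNG channel; stimulus was NPY near EC95 followed by isoproterenol to raise cAMP; antagonist potency measured as restoring cAMP signal that NPY suppresses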
T2 sequence (P49146 whole entry): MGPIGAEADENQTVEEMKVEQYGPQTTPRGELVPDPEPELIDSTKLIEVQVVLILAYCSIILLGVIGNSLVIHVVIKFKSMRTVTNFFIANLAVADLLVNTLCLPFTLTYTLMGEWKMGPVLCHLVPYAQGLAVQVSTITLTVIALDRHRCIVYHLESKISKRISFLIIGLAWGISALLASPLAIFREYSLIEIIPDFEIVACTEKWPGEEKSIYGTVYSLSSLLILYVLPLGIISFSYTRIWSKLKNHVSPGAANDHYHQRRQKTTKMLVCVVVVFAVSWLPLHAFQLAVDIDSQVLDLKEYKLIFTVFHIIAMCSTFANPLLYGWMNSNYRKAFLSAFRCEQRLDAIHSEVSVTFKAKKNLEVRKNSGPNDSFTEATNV

[3] = target: Epstein-Barr nuclear antigen 1 (Epstein-Barr virus (strain B95-8) (HHV-4) (Human herpesvirus 4), UniProt P03211); assay: inhibition of EBV nuclear antigen 1 DNA binding – biochemical, fluorescence polarization, 1536-well, dose response (AID 2381); design: species or system human gammaherpesvirus 4;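 note: fluorescence polarization of a Cy5 DNA probe bound by EBNA-1 protein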
Chain of Epstein-Barr nuclear antigen 1 (P03211 whole entry): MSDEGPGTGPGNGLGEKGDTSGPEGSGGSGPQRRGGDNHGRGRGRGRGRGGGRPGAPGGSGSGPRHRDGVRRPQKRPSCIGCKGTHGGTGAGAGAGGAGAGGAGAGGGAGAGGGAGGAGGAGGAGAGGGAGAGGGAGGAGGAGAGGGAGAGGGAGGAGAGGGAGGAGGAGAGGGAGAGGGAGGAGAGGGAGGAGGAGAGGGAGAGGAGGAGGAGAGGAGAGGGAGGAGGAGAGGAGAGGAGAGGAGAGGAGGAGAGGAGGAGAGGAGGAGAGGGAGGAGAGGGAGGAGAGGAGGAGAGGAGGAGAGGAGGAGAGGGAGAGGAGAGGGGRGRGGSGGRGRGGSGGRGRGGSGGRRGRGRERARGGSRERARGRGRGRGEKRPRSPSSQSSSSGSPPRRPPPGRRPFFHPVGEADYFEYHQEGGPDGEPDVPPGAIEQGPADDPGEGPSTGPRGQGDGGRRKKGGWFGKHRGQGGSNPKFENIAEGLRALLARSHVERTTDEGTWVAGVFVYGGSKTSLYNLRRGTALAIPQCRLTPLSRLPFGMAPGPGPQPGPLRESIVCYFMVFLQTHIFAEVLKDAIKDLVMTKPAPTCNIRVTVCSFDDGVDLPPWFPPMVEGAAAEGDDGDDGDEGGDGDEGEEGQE

[4] = target: Lytic switch protein BZLF1 (Epstein-Barr virus (strain B95-8) (HHV-4) (Human herpesvirus 4), UniProt P03206); assay: inhibition of BZLF1 ZTA DNA binding – biochemical, fluorescence polarization, Epstein-Barr virus, 1536-well, counter-screen for EBNA-1 inhibitor project, dose response (AID 2377); design: species or system human gammaherpesvirus 4;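 note: fluorescence polarization of Cy5-labelled ZRE DNA probe bound by purified Zta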
Chain of Lytic switch protein BZLF1 (P03206 whole entry): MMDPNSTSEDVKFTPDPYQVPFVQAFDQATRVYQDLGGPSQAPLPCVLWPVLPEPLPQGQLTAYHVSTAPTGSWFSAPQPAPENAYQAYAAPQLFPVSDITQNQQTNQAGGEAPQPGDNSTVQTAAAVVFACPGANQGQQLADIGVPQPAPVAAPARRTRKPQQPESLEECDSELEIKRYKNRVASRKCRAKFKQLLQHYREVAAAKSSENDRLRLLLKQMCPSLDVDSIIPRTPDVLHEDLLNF

[5] = target: T3, Leucine aminopeptidase (Plasmodium falciparum 3D7, UniProt Q8IL11); assay: P. falciparum M17LAP inhibitors, primary screen, biochemical, fluorogenic H-Leu-NHMec substrate, 1536-well (AID 1619); assay type: functional
T3 sequence (Q8IL11 whole entry): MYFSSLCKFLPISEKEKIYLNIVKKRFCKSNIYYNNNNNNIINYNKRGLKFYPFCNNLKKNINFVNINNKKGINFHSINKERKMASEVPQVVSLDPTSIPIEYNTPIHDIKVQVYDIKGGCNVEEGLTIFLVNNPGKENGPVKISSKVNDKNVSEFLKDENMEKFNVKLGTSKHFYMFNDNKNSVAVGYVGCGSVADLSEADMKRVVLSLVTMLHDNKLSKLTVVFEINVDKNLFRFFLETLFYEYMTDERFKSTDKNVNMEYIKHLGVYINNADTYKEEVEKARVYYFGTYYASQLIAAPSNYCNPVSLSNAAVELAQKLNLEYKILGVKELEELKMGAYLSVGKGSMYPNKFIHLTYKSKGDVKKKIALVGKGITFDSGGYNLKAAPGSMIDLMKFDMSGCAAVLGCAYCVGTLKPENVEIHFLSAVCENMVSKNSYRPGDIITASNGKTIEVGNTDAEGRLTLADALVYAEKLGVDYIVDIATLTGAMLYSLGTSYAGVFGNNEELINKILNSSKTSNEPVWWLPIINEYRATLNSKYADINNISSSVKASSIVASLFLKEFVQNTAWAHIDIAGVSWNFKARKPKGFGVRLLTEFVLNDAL

[6] = target: T4, Aspartyl aminopeptidase (Plasmodium falciparum 3D7, UniProt Q8I2J3); assay: Counterscreen for inhibitors of M1 and M17 aminopeptidases: QFRET-based biochemical high throughput dose response assay for inhibitors of the Plasmodium falciparum M18 Aspartyl Aminopeptidase (PFM18AAP). [Related PubChem assays: 1619 (Screening assay (M17LAP inhibitors).), 1445 (Screening assay (M1AAP inhibitors).)]
T4 sequence (Q8I2J3 whole entry): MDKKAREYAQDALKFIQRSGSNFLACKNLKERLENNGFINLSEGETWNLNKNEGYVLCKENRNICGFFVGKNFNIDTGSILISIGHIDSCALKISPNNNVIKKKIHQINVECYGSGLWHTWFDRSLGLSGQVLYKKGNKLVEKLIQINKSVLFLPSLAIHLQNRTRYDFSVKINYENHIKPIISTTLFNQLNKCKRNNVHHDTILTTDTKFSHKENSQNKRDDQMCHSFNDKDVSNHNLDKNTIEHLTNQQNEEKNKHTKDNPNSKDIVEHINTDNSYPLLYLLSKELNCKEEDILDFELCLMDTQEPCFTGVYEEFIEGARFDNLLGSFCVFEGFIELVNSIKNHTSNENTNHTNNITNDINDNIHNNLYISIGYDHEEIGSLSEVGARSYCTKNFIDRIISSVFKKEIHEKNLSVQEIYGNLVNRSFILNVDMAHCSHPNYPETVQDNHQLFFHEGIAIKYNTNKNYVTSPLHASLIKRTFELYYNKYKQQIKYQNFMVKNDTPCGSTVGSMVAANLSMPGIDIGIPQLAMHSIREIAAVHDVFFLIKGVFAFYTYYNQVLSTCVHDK

[7] = target: Procathepsin L (Homo sapiens, UniProt P07711); assay: CTSL1 protease inhibition – biochemical, QFRET, 1536-well, counter-screen for M1/M17 aminopeptidase inhibitor project, dose response (AID 2214)
Chain of Procathepsin L (P07711 whole entry): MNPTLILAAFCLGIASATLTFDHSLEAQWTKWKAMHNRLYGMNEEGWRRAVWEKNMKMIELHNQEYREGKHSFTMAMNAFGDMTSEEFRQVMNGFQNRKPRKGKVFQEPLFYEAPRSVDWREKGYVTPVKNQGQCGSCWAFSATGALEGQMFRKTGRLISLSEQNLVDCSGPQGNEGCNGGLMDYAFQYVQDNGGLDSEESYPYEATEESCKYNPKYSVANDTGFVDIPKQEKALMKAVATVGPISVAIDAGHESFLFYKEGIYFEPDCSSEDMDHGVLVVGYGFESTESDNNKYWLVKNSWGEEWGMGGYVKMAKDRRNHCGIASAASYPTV

[8] = target: T5, Replicative DNA helicase DnaB (Mycobacterium tuberculosis, UniProt P9WMR3); assay: DnaB intein splicing inhibitors, dose response, biochemical, cell-free fluorescence (AID 449749); assay type: functional
T5 sequence (P9WMR3 whole entry): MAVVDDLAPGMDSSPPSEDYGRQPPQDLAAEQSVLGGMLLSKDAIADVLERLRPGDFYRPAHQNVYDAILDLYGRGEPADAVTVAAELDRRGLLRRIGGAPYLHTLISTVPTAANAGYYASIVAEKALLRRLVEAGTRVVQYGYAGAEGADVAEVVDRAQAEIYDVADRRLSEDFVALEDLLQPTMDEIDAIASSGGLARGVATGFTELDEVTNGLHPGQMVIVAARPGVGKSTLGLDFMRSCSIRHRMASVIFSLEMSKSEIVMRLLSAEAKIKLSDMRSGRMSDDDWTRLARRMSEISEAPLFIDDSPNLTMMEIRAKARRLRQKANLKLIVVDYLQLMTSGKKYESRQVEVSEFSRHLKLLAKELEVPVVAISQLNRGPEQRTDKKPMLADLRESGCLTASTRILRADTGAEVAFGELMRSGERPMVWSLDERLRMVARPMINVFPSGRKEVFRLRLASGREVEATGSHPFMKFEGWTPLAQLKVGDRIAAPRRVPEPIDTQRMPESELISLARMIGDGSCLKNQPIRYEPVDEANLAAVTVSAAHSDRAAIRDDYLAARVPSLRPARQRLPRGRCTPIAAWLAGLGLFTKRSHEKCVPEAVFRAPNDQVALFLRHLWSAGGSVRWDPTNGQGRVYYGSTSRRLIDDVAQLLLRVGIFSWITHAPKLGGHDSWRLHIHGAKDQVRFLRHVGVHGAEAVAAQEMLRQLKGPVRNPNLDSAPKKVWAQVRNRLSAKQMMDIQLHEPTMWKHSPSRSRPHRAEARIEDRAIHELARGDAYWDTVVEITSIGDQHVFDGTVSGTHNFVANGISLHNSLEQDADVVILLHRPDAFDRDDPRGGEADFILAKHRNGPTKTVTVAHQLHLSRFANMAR

[9] = target: T6, Protein RecA (Mycobacterium tuberculosis, UniProt P9WHJ3); assay: Fluorescence Cell-Free Homogeneous Dose Retest to Identify Inhibitors of RecA-Intein Splicing Activity. [Related pubchem assays (depositor defined):AID2097, AID2223, AID489010, AID492950]; assay type: functional
T6 sequence (P9WHJ3 whole entry): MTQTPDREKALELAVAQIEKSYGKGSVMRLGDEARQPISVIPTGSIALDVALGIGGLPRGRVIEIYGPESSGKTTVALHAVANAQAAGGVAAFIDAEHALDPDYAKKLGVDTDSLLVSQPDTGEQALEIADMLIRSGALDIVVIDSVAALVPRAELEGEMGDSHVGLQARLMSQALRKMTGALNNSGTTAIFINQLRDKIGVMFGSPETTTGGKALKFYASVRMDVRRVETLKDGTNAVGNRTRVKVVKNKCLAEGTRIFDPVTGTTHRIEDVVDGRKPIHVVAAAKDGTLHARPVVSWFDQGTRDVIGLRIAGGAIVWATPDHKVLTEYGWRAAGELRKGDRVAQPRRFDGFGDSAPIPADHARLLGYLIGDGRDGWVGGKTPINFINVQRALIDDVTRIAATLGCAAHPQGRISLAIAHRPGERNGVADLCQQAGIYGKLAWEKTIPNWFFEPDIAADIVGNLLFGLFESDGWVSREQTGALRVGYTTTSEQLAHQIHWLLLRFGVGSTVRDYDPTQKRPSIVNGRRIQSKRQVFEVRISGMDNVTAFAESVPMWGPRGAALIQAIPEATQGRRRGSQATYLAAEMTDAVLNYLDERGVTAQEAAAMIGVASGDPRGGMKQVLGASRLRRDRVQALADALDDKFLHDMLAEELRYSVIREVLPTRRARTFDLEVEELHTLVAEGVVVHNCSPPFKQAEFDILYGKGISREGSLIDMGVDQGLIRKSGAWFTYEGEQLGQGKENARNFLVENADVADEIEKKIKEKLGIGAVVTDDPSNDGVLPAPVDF

[10] = target: T7, NADPH oxidase 1 (Homo sapiens, UniProt Q9Y5S8); assay type: functional, cell-based;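 note: Cell-based assay with luminescence read-out, IC50 derived from inhibitor dose-response curves; intracellular ROS from endogenous NOX1 in intact HT29 colon cancer cells; potency of inhibitors that lower the ROS luminescence signal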
T7 sequence (Q9Y5S8 whole entry): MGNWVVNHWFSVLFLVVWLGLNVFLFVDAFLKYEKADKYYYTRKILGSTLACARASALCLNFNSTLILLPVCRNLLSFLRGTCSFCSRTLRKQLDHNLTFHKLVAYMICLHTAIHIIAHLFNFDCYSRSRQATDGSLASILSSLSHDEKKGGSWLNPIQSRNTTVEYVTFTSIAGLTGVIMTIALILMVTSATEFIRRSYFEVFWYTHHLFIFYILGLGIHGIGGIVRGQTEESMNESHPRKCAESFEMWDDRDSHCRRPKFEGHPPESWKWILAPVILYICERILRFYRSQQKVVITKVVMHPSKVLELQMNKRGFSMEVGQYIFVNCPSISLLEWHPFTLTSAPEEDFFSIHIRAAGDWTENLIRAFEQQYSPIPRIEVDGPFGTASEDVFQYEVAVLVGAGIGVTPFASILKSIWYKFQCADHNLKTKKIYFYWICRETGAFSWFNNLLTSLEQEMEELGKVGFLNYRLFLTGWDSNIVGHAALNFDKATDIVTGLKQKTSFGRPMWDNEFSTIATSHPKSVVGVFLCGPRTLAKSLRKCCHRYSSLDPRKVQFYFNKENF

[11] = decrease of insulin promoter-GFP reporter – imaging, high-content screening, mouse beta cells (AID 1628); assay type: functional; settings: MIN6
[12] = MIN6 cell viability loss – mouse insulinoma, cytotoxicity control, dose response (AID 2122); assay type: functional;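 note: confirmatory high-throughput counterscreen run to flag cytotoxic compounds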
[13] = target: T8, Estrogen receptor beta (Homo sapiens, UniProt Q92731);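 note: recombinant ER-beta bound to coactivator SRC1 peptide in presence of estradiol agonist; inhibitors block coactivator peptide binding and lower the FRET signal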
T8 sequence (Q92731 whole entry): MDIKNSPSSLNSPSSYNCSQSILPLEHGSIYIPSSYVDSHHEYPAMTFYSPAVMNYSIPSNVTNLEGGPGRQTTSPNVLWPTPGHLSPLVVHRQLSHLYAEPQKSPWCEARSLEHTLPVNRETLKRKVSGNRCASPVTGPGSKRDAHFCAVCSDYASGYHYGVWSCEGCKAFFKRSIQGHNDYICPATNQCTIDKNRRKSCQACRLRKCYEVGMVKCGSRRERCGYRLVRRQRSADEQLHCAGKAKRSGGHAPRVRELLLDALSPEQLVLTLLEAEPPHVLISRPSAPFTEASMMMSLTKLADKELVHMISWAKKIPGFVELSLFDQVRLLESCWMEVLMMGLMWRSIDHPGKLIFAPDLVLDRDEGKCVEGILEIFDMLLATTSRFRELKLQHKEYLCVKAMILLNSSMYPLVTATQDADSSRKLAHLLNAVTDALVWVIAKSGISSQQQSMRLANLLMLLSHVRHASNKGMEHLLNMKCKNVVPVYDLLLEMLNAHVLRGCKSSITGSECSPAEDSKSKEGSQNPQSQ

[14] = target: T8, Estrogen receptor beta; assay: blockers of SRC-3 recruitment to ERβ – biochemical, ELISA, streptavidin-HRP readout, orthogonal assay, confirmation (AID 1060)
[15] = target: Nonstructural protein 1 (Influenza A virus, UniProt Q194T2); assay type: functional, Influenza A virus (A/California/07/2009(H1N1))
Chain of Nonstructural protein 1 (Q194T2 whole entry): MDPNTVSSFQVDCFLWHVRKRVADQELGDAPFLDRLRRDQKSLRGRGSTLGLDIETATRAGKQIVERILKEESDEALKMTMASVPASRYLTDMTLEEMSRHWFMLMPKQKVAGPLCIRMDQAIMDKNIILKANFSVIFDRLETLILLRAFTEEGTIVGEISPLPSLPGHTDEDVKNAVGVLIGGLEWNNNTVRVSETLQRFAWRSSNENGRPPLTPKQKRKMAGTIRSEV

SMILES: COc1ccc(NC(=O)c2nnc(O)c3ccccc23)cc1S(=O)(=O)N1CCCCC1
- IC50 [1]: 21 µM (not active)
- IC50 [2]: 19.6 µM (not active)

SMILES: O=C(NC(=S)Nc1ccc(S(=O)(=O)N2CCCCCC2)cc1)c1cccs1
- IC50 [3]: 14.8 µM (not active)
- IC50 [4]: > 111 µM (not active)

SMILES: O=c1cc(-c2ccc(F)cc2)[nH][nH]1
- IC50 [5]: 1.13 µM (active)
- IC50 [6]: > 73.5 µM (not active)
- IC50 [7]: > 59.6 µM (not active)
- AC50 [8]: 1.79 µM (active)
- EC50 [9]: 0.548 µM (active)

SMILES: O=C(CCC(=O)Nc1ccc(F)cc1)Nc1ccc(F)cc1
- IC50 [10]: > 17 µM (not active)

SMILES: Cc1ccc(Nc2nnc(SC3CCOC3=O)s2)c(C)c1 (stereo not drawn)
- IC50 [5]: 2.57 µM (active)
- IC50 [6]: > 73.5 µM (not active)
- IC50 [7]: > 59.6 µM (not active)

SMILES: CN(C)c1ccc(/N=C/c2ccco2)cc1
- IC50 [11]: 3.55 µM (active)
- IC50 [12]: 3.61 µM (active)
- IC50 [13]: 18.5 µM (active)
- IC50 [14]: 0.048 µM (not active)
- IC50 [15]: 16.6 µM (active)

SMILES: O=C(NNC(=O)c1ccc(NC(=O)c2ccccc2)cc1)c1ccc(F)cc1
- IC50 [3]: 6.82 µM (active)
- IC50 [4]: > 111 µM (not active)

SMILES: COc1cc(/C=N/Nc2c(Cl)c(Cl)nc(C(=O)O)c2Cl)cc(OC)c1OC
- IC50 [10]: > 17 µM (not active)

SMILES: COCc1cc(O)n2c(-c3ccc(C)cc3)nnc2n1
- IC50 [13]: 17.5 µM (active)
- IC50 [14]: 1.03 µM (not active)
